Experiments:
Assay type in all cases: in vivo
[1] = system: Plutella xylostella; assay: Pesticidal test against Plutella xylostella (cabbage leaf dip); settings: foliar, 144 h, 2-stage larvae, examined after 6 days, 25° C., read-out: pesticidal rate; for pest or weed control at 1 ppm: concentration 1 ppm; for pest or weed control at 10 ppm: concentration 10 ppm
How it was run: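 Second-stage larvae (5 per group, two replicates) were released onto air-dried cabbage leaf discs that had been immersed for 30 seconds in compound solution at a set concentration. Mortality was scored after 6 days at 25° C.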

[2] = system: Musca domestica; assay: Pesticidal test against Musca domestica (petri dish dry film); settings: 24 h, concentration 100 ppm, female adults, examined after 1 day, 25° C., read-out: pesticidal rate
Protocol: Pesticidal Test against Musca domestica
1 ml of an acetone solution in which a test compound had been prepared at a predetermined concentration was added dropwise to a petri dish having a diameter of 9 cm, and air-dried, and then the female adults of Musca domestica were released and the petri dish was capped. They were left to stand in a thermostatic chamber at 25° C., and the numbers of the living pests and the dead pests were examined after 1 day. The test was carried out with five larvae per group in two replicates.

[3] = system: Spodoptera litura; assay: Pesticidal test against Spodoptera litura (cabbage leaf dip); settings: foliar, 144 h, 2-stage larvae, examined after 6 days, 25° C., read-out: pesticidal rate; for pest or weed control at 1 ppm: concentration 1 ppm; for pest or weed control at 10 ppm: concentration 10 ppm
How it was run: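 Cabbage leaf pieces dipped 30 seconds in compound solution at a predetermined concentration and air-dried, then offered to second-stage larvae, five per group in two replicates. Held at 25° C. Living and dead larvae counted after 6 days.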

[4] = system: Laodelphax striatellus; assay: Pesticidal test against Laodelphax striatellus (rice seedling spray); settings: 144 h, concentration 100 ppm, 3-stage larvae, examined after 6 days, 25° C., read-out: pesticidal rate
How it was run: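 Rice seedlings sprayed with 2.5 ml acetone solution of compound at a predetermined concentration, air-dried, then infested with third-stage Laodelphax striatellus larvae in capped water-containing tubes at 25 °C. Living and dead insects counted after 6 days; ten larvae per group, two replicates.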

CN(C(=O)c1ccccc1F)c1cccc(C(=O)Nc2c(Br)cc(C(F)(C(F)(F)F)C(F)(F)C(F)(F)F)cc2Br)c1 (stereo not drawn) [7-39]
≥ 70%: pest or weed control at 1 ppm [1] | pest or weed control at 100 ppm [2] | pest or weed control at 1 ppm [3]

CN(C(=O)c1ccccc1Cl)c1cccc(C(=O)Nc2c(I)cc(C(F)(C(F)(F)F)C(F)(F)F)cc2C(F)(F)F)c1 [7-428]
≥ 70%: pest or weed control at 1 ppm [1] | pest or weed control at 100 ppm [2] | pest or weed control at 1 ppm [3]

O=C(Nc1cccc(C(=O)Nc2c(Br)cc(C(F)(C(F)(F)F)C(F)(F)F)cc2C(F)(F)F)c1F)OCC(Cl)(Cl)Cl [11-777]
≥ 70%: pest or weed control at 1 ppm [1] | pest or weed control at 100 ppm [2] | pest or weed control at 1 ppm [3]

O=C(Nc1c(I)cc(C(F)(C(F)(F)F)C(F)(F)F)cc1C(F)(F)F)c1cccc(NC(=O)c2ccc(F)cc2Br)c1 [6-453]
≥ 70%: pest or weed control at 1 ppm [1] | pest or weed control at 100 ppm [2] | pest or weed control at 1 ppm [3]

O=C(Nc1c(Br)cc(C(F)(C(F)(F)F)C(F)(F)F)cc1C(F)(F)F)c1cccc(NC(=O)c2ccc(F)cc2Cl)c1 [6-293]
≥ 70%: pest or weed control at 1 ppm [1] | pest or weed control at 100 ppm [2] | pest or weed control at 1 ppm [3]

CN(C(=O)c1ccc(F)cc1Cl)c1cccc(C(=O)Nc2c(I)cc(C(F)(C(F)(F)F)C(F)(F)F)cc2C(F)(F)F)c1 [7-449]
≥ 70%: pest or weed control at 1 ppm [1] | pest or weed control at 100 ppm [2] | pest or weed control at 1 ppm [3]

O=C(Nc1cccc(C(=O)Nc2c(I)cc(C(F)(C(F)(F)F)C(F)(F)F)cc2C(F)(F)F)c1F)OCC(Cl)(Cl)Cl [11-835]
≥ 70%: pest or weed control at 1 ppm [1] | pest or weed control at 100 ppm [2] | pest or weed control at 1 ppm [3]

O=C(Nc1c(Br)cc(C(F)(C(F)(F)F)C(F)(F)F)cc1C(F)(F)F)c1cccc(NC(=O)c2ccccc2Cl)c1 [6-272]
≥ 70%: pest or weed control at 1 ppm [1] | pest or weed control at 100 ppm [2] | pest or weed control at 1 ppm [3]

CN(C(=O)OCC(Cl)(Cl)Cl)c1cccc(C(=O)Nc2c(Br)cc(C(F)(C(F)(F)F)C(F)(F)F)cc2C(F)(F)F)c1F [12-777]
≥ 70%: pest or weed control at 1 ppm [1] | pest or weed control at 100 ppm [2] | pest or weed control at 1 ppm [3]

O=C(Nc1c(I)cc(C(F)(C(F)(F)F)C(F)(F)F)cc1C(F)(F)F)c1cccc(NC(=O)c2ccccc2Cl)c1 [6-428]
≥ 70%: pest or weed control at 1 ppm [1] | pest or weed control at 100 ppm [2] | pest or weed control at 1 ppm [3]

O=C(Nc1c(Cl)cc(C(F)(C(F)(F)F)C(F)(F)F)cc1C(F)(F)F)c1cccc(NC(=O)c2cccnc2Cl)c1 [6-147]
≥ 70%: pest or weed control at 1 ppm [1] | pest or weed control at 100 ppm [4] | pest or weed control at 1 ppm [3]

CN(C(=O)c1cccc([N+](=O)[O-])c1)c1cccc(C(=O)Nc2c(Br)cc(C(F)(C(F)(F)F)C(F)(F)F)cc2C(F)(F)F)c1 [7-285]
≥ 70%: pest or weed control at 10 ppm [1] | pest or weed control at 100 ppm [4] | pest or weed control at 1 ppm [3]

CN(C(=O)c1c(F)cccc1F)c1cccc(C(=O)Nc2c(Br)cc(C(F)(C(F)(F)F)C(F)(F)C(F)(F)F)cc2Br)c1 (stereo not drawn) [7-47]
≥ 70%: pest or weed control at 1 ppm [1] | pest or weed control at 100 ppm [4] | pest or weed control at 1 ppm [3]

O=C(Nc1cccc(C(=O)Nc2c(I)cc(C(F)(C(F)(F)F)C(F)(F)F)cc2I)c1F)c1ccccc1F [6-1261]
≥ 70%: pest or weed control at 1 ppm [1] | pest or weed control at 100 ppm [4] | pest or weed control at 1 ppm [3]

CN(C(=O)c1cccnc1Cl)c1cccc(C(=O)Nc2c(Cl)cc(C(F)(C(F)(F)F)C(F)(F)F)cc2Cl)c1F [7-984]
≥ 70%: pest or weed control at 1 ppm [1] | pest or weed control at 100 ppm [4] | pest or weed control at 1 ppm [3]

O=C(Nc1cccc(C(=O)Nc2c(I)cc(C(F)(C(F)(F)F)C(F)(F)C(F)(F)F)cc2I)c1F)c1ccccc1F (stereo not drawn) [6-1339]
≥ 70%: pest or weed control at 1 ppm [1] | pest or weed control at 100 ppm [4] | pest or weed control at 1 ppm [3]

N#Cc1cccc(C(=O)Nc2cccc(C(=O)Nc3c(Br)cc(C(F)(C(F)(F)F)C(F)(F)C(F)(F)F)cc3Br)c2)c1 (stereo not drawn) [6-45]
≥ 70%: pest or weed control at 1 ppm [1] | pest or weed control at 100 ppm [4] | pest or weed control at 1 ppm [3]

O=C(Nc1c(I)cc(C(F)(C(F)(F)F)C(F)(F)F)cc1I)c1cccc(NC(=O)c2c(F)cccc2F)c1F [6-1282]
≥ 70%: pest or weed control at 1 ppm [1] | pest or weed control at 100 ppm [4] | pest or weed control at 1 ppm [3]

CN(C(=O)c1cccnc1F)c1cccc(C(=O)Nc2c(Br)cc(C(F)(C(F)(F)F)C(F)(F)F)cc2C(F)(F)F)c1 [7-303]
≥ 70%: pest or weed control at 1 ppm [1] | pest or weed control at 100 ppm [4] | pest or weed control at 1 ppm [3]

CN(C(=O)c1ccc(C#N)cc1)c1cccc(C(=O)Nc2c(Br)cc(C(F)(C(F)(F)F)C(F)(F)F)cc2C(F)(F)F)c1 [7-289]
≥ 70%: pest or weed control at 1 ppm [1] | pest or weed control at 100 ppm [4] | pest or weed control at 1 ppm [3]

O=C(Nc1c(Br)cc(C(F)(C(F)(F)F)C(F)(F)F)cc1C(F)(F)F)c1cccc(NC(=O)c2ccccc2F)c1 [6-269]
≥ 70%: pest or weed control at 10 ppm [1] | pest or weed control at 100 ppm [4] | pest or weed control at 1 ppm [3]

O=C(Nc1cccc(C(=O)Nc2c(I)cc(C(F)(C(F)(F)F)C(F)(F)F)cc2I)c1F)c1ccc(Cl)nc1 [6-1303]
≥ 70%: pest or weed control at 1 ppm [1] | pest or weed control at 100 ppm [4] | pest or weed control at 1 ppm [3]

O=C(Nc1cccc(C(=O)Nc2c(Br)cc(C(F)(C(F)(F)F)C(F)(F)C(F)(F)F)cc2C(F)(F)F)c1F)c1ccccc1F (stereo not drawn) [6-1653]
≥ 70%: pest or weed control at 1 ppm [1] | pest or weed control at 100 ppm [4] | pest or weed control at 1 ppm [3]

CN(C(=O)c1cccc(F)c1)c1cccc(C(=O)Nc2c(Br)cc(C(F)(C(F)(F)F)C(F)(F)C(F)(F)F)cc2Br)c1 (stereo not drawn) [7-5906]
≥ 70%: pest or weed control at 1 ppm [1] | pest or weed control at 100 ppm [4] | pest or weed control at 1 ppm [3]

CN(C(=O)c1ccccc1)c1cccc(C(=O)Nc2c(Cl)cc(C(F)(C(F)(F)F)C(F)(F)F)cc2Cl)c1F [7-948]
≥ 70%: pest or weed control at 1 ppm [1] | pest or weed control at 100 ppm [4] | pest or weed control at 1 ppm [3]

CN(C(=O)c1cccc(C#N)c1)c1cccc(C(=O)N(C)c2c(Br)cc(C(F)(C(F)(F)F)C(F)(F)F)cc2C(F)(F)F)c1 [9-290]
≥ 70%: pest or weed control at 1 ppm [1] | pest or weed control at 100 ppm [4] | pest or weed control at 1 ppm [3]

CN(C(=O)c1cncnc1)c1cccc(C(=O)Nc2c(I)cc(C(F)(C(F)(F)F)C(F)(F)F)cc2C(F)(F)F)c1 [7-5909]
≥ 70%: pest or weed control at 1 ppm [1] | pest or weed control at 100 ppm [4] | pest or weed control at 10 ppm [3]

O=C(Nc1cccc(C(=O)Nc2c(I)cc(C(F)(C(F)(F)F)C(F)(F)C(F)(F)F)cc2I)c1)c1cccc(F)c1 (stereo not drawn) [6-5903]
≥ 70%: pest or weed control at 1 ppm [1] | pest or weed control at 100 ppm [4] | pest or weed control at 1 ppm [3]

O=C(Nc1cccc(C(=O)Nc2c(Br)cc(C(F)(C(F)(F)F)C(F)(F)F)cc2C(F)(F)F)c1)c1cccc(F)c1 [6-270]
≥ 70%: pest or weed control at 1 ppm [1] | pest or weed control at 100 ppm [4] | pest or weed control at 1 ppm [3]

N#Cc1ccc(C(=O)Nc2cccc(C(=O)Nc3c(Br)cc(C(F)(C(F)(F)F)C(F)(F)F)cc3OC(F)(F)F)c2F)cc1 [6-5909]
≥ 70%: pest or weed control at 1 ppm [1] | pest or weed control at 100 ppm [4] | pest or weed control at 1 ppm [3]

CN(C(=O)c1ccccc1F)c1cccc(C(=O)Nc2c(Br)cc(C(F)(C(F)(F)F)C(F)(F)C(F)(F)F)cc2Br)c1F (stereo not drawn) [7-1183]
≥ 70%: pest or weed control at 1 ppm [1] | pest or weed control at 100 ppm [4] | pest or weed control at 1 ppm [3]

CN(C(=O)c1ccc(C#N)cc1)c1cc(C(=O)Nc2c(Br)cc(C(F)(C(F)(F)F)C(F)(F)F)cc2C(F)(F)F)ccc1F [7-3369]
≥ 70%: pest or weed control at 1 ppm [1] | pest or weed control at 100 ppm [4] | pest or weed control at 1 ppm [3]

CN(C(=O)c1ccc(C#N)nc1)c1cccc(C(=O)Nc2c(Br)cc(C(F)(C(F)(F)F)C(F)(F)F)cc2C(F)(F)F)c1 [7-316]
≥ 70%: pest or weed control at 10 ppm [1] | pest or weed control at 100 ppm [4] | pest or weed control at 10 ppm [3]

O=C(Nc1cccc(C(=O)Nc2c(Br)cc(C(F)(C(F)(F)F)C(F)(F)F)cc2C(F)(F)F)c1)c1ccccc1 [6-268]
≥ 70%: pest or weed control at 1 ppm [1] | pest or weed control at 100 ppm [4] | pest or weed control at 1 ppm [3]

CN(C(=O)c1c(F)cccc1F)c1cccc(C(=O)Nc2c(Br)cc(C(F)(C(F)(F)F)C(F)(F)C(F)(F)F)cc2Br)c1F (stereo not drawn) [7-1204]
≥ 70%: pest or weed control at 1 ppm [1] | pest or weed control at 100 ppm [4] | pest or weed control at 1 ppm [3]

O=C(Nc1cccc(C(=O)Nc2c(Br)cc(C(F)(C(F)(F)F)C(F)(F)C(F)(F)F)cc2Br)c1F)c1ccc(F)cc1 (stereo not drawn) [6-1185]
≥ 70%: pest or weed control at 1 ppm [1] | pest or weed control at 100 ppm [4] | pest or weed control at 1 ppm [3]

N#Cc1ccc(C(=O)Nc2cccc(C(=O)Nc3c(I)cc(C(F)(C(F)(F)F)C(F)(F)C(F)(F)F)cc3I)c2)cc1 (stereo not drawn) [6-79, 3-(4-cyanobenzamide)-N-(2,6-diiodo-4-(perfluorobutan-2-yl)phenyl)benzamide]
≥ 70%: pest or weed control at 1 ppm [1] | pest or weed control at 100 ppm [4] | pest or weed control at 1 ppm [3]

O=C(Nc1cccc(C(=O)Nc2c(I)cc(C(F)(C(F)(F)F)C(F)(F)C(F)(F)F)cc2I)c1F)c1ccc(Cl)nc1 (stereo not drawn) [6-1381]
≥ 70%: pest or weed control at 1 ppm [1] | pest or weed control at 100 ppm [4] | pest or weed control at 1 ppm [3]

Source: patent publication US8686044B2, “Amide derivative, pest control agent containing the amide derivative, and use of the amide derivative” (Mitsui Chemicals Agro, Inc., priority 2008, dated 2014)
